Measured values taken from PubChem BioAssay (NCI).
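96-well plates; 48 h exposure; 5 concentrations. Endpoints by linear interpolation between flanking doses. Not reached: highest tested concentration assigned. GI50 = concentration required for 50% inhibition of growth. Definition used: TGI = concentration required for complete inhibition of growth.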

Assays:
Assay in all cases: inhibition of tumour cell growth, NCI panel, 48 h
RXF 393 renal = test system: RXF 393 renal
OVCAR-4 ovarian = test system: OVCAR-4 ovarian
786-0 renal = test system: 786-0 renal
HCT-15 colon = test system: HCT-15 colon
MDA-MB-435 = test system: MDA-MB-435
BT-549 breast = test system: BT-549 breast
SF-295 CNS = test system: SF-295 CNS
T-47D breast = test system: T-47D breast
SF-268 CNS = test system: SF-268 CNS
UO-31 renal = test system: UO-31 renal

| Structure (SMILES) | TGI (RXF 393 renal) [µM] | TGI (OVCAR-4 ovarian) [µM] | TGI (786-0 renal) [µM] | TGI (HCT-15 colon) [µM] | TGI (MDA-MB-435) [µM] | TGI (BT-549 breast) [µM] | TGI (SF-295 CNS) [µM] | TGI (T-47D breast) [µM] | TGI (SF-268 CNS) [µM] | TGI (UO-31 renal) [µM] | GI50 (RXF 393 renal) [µM] | GI50 (OVCAR-4 ovarian) [µM] | GI50 (786-0 renal) [µM] | GI50 (HCT-15 colon) [µM] | GI50 (MDA-MB-435) [µM] | GI50 (BT-549 breast) [µM] | GI50 (SF-295 CNS) [µM] | GI50 (T-47D breast) [µM] | GI50 (SF-268 CNS) [µM] | GI50 (UO-31 renal) [µM] |
| --- | --- | --- | --- | --- | --- | --- | --- | --- | --- | --- | --- | --- | --- | --- | --- | --- | --- | --- | --- | --- |
| CC(=O)OC(C)(C)/C=C/C(=O)[C@](C)(O)[C@H]1[C@H](O)C[C@@]2(C)[C@@H]3CC=C4[C@@H](C[C@H](O)C(=O)C4(C)C)[C@]3(C)C(=O)C[C@]12C | < 0.0128 | < 0.01 | 14.8 | 4.99 | 2.46 | 0.0201 | 0.0304 | 0.543 | < 0.01 | < 0.0167 | – | – | – | – | – | – | – | – | – | – |
| Cc1ccc2c(=O)c3cccc(CC(=O)O)c3oc2c1C | > 100 | > 100 | > 100 | > 100 | > 100 | > 100 | > 100 | > 100 | > 100 | > 100 | > 100 | > 100 | > 100 | > 100 | > 100 | > 100 | > 100 | > 100 | > 100 | > 100 |
| S=C(Nc1ccc(Cl)cc1)Nc1ccc(-c2nc3ccccc3[nH]2)cc1 | > 20.5 | > 84.3 | 22.8 | 12.9 | 26.6 | 53.1 | 4.24 | 32.7 | > 68.7 | > 29.4 | 5.86 | 15.4 | 10.2 | 3.82 | 9.11 | 19.1 | 0.757 | 5.34 | 12.2 | 5.86 |
| O=c1cc(-c2ccccc2)nc2n1CCN2Cc1ccccc1 | > 100 | > 100 | > 100 | > 100 | > 100 | 67.2 | 72.2 | > 100 | > 100 | 74.7 | 46.2 | 74.4 | 39.7 | 31.2 | 31.1 | 26.6 | 21.1 | 65 | 46.9 | 21.3 |
| CC(C)(O)C1OCC(C2CCC3(C)C4=CCC5C(C)(C)C(O)CCC5(C)C4CCC23C)CC1O (stereo unspecified) | – | 27.5 | 27.3 | 28 | 28.8 | 24.8 | 26.8 | 26.6 | 30.4 | 41.8 | – | – | – | – | – | – | – | – | – | – |
| Cc1ccc2c(N)c(C(=O)N[C@H]3CCc4cc(N5CC6CCC(C5)N6)ccc4C3)sc2n1 | 0.686 | 1.96 | 3.86 | 2.36 | 2.34 | 3.06 | 2.59 | 3.55 | 2.51 | 3.24 | 0.217 | 0.301 | 0.497 | 0.34 | 0.359 | 0.927 | 0.509 | 0.497 | 0.42 | 0.577 |
| O=C1C(=O)c2ccccc2C(O)=C1C(CCc1ccccc1)C1=C(O)c2ccccc2C(=O)C1=O | > 100 | > 100 | > 100 | > 100 | 28.4 | > 100 | > 100 | > 100 | > 100 | > 100 | – | – | – | – | – | – | – | – | – | – |
| O=C1C=Cc2ccccc2/C1=C/c1[nH]c(=O)[nH]c1O | 10.2 | 23.4 | 29.5 | > 100 | 4.64 | 96.3 | 8.3 | 25.6 | > 100 | 28.5 | 2.78 | 4.22 | 5.41 | 7.44 | 1.76 | 6.75 | 3.1 | 2.5 | 7.27 | 1.78 |
| O=C(C(Br)Br)C(Br)C(Br)c1ccccc1 (stereo unspecified) | 3.45 | – | 11 | 4.38 | 8.21 | 14.1 | – | 9.69 | 16.9 | 7.86 | 1.7 | – | 3.47 | 1.96 | 2.67 | 3.97 | – | 2.75 | 4.04 | 2.5 |
| Nc1ccccc1C#C/C=C\C#Cc1ccc(Cl)cc1Cl | 40.7 | > 100 | 27.4 | – | 5.8 | 28.7 | 20 | 78.5 | 23.7 | 40 | 14.3 | 28.5 | 13.5 | – | 2.41 | 12.4 | 5.17 | 18.9 | 4.38 | 14.2 |
| CCSc1nc(N=Cc2cccs2)c2cn[nH]c2n1 | 7.72 | 67.4 | > 100 | > 100 | 57.2 | > 100 | > 100 | 95 | > 100 | > 100 | 2.85 | 17.8 | 33.4 | 24.6 | 10.8 | > 100 | 19.1 | 23.6 | 6.49 | 53.5 |
| O=C1c2ccccc2-c2c1c1ccccc1c(=O)n2CCCN1CCOCC1 | 24.3 | > 100 | 18.5 | > 100 | > 100 | 25.5 | 20.6 | 97.4 | 26.1 | > 100 | 6.21 | > 100 | 3.94 | 21.8 | > 100 | 8 | 6.72 | 19.6 | 6.52 | 17.1 |
| COc1c(O)ccc2c1CN1CCc3cc4c(cc3C1C2)OCO4 (stereo unspecified) | 50.6 | > 100 | > 100 | > 100 | > 60.9 | > 100 | > 96.6 | > 73.9 | > 100 | > 100 | – | – | – | – | – | – | – | – | – | – |
| COc1ccc(-c2nc(-c3ccccc3)c(-c3ccccc3)n2C2CC2)cc1OC1CCCC1 | – | > 165 | > 165 | > 165 | > 165 | > 165 | > 165 | > 165 | > 165 | > 165 | – | 97.4 | 98.2 | 7.26 | 147 | > 165 | 67.5 | 51.5 | 44.9 | 64.6 |
